Data as given in ChEMBL document CHEMBL1909046, “DrugMatrix in vitro pharmacology data”.
pIC50, pKi: −log10 of the molar value.

Target: T1, Cytochrome P450 1A2 (Homo sapiens, UniProt P05177)
T1 sequence (P05177 whole entry): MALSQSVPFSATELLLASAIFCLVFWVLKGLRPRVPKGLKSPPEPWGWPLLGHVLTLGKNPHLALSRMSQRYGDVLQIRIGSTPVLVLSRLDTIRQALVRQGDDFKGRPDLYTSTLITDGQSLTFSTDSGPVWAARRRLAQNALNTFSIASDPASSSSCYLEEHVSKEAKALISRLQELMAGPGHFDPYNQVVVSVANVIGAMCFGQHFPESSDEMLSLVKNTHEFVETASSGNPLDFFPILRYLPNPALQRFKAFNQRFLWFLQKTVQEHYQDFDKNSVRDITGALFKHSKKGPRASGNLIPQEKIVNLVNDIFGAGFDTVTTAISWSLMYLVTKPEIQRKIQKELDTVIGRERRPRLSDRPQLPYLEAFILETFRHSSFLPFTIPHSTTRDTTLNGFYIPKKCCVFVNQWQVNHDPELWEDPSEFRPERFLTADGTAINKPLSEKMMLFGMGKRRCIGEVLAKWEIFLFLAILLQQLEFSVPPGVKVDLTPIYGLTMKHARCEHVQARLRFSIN
Test: not given
Also: in other assays of this panel Not Active means under 50% inhibition at 10 µM.

SMILES | pIC50
c1ccc(Cn2ccnc2)cc1 | 6.70
c1ccc2c(c1)Nc1ccccc1S2 [PHENOTHIAZINE] | 7.80
CC(N)Cc1c[nH]c2ccc(OCc3cccs3)cc12 (configuration not stated) [BW-723C86] | 6.06
O=c1[nH]c2ccccc2c2ccccc12 | 7.80
CC(=O)Nc1ccc2c(c1)Cc1ccccc1-2 [2-ACETYLAMINOFLUORENE] | 7.80

Target: Cytochrome P450 2C9 (Homo sapiens, UniProt P11712)
Sequence (P11712 whole entry): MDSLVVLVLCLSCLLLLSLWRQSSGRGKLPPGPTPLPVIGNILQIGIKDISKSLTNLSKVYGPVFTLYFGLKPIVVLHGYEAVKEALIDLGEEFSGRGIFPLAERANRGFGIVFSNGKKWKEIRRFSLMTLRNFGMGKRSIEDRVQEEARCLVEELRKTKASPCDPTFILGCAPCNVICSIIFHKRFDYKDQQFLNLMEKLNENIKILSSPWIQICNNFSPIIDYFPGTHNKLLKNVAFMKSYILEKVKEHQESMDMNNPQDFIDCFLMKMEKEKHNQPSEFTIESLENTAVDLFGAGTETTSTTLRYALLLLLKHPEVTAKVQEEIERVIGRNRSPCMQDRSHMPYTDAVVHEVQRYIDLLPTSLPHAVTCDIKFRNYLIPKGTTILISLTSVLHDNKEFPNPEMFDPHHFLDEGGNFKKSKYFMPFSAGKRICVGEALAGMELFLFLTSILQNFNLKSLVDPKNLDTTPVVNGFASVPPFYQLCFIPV
Test: not given

SMILES | pIC50
CN(CCOc1ccc(C[C@H](Nc2ccccc2C(=O)c2ccccc2)C(=O)O)cc1)c1ccccn1 | 5.40
COc1cc([C@@H]2c3cc4c(cc3[C@H](O)[C@H]3COC(=O)[C@H]23)OCO4)cc(OC)c1OC [PODOFILOX] | 5.40

Target: Cytochrome P450 2C19 (Homo sapiens, UniProt P33261)
Sequence (P33261 whole entry): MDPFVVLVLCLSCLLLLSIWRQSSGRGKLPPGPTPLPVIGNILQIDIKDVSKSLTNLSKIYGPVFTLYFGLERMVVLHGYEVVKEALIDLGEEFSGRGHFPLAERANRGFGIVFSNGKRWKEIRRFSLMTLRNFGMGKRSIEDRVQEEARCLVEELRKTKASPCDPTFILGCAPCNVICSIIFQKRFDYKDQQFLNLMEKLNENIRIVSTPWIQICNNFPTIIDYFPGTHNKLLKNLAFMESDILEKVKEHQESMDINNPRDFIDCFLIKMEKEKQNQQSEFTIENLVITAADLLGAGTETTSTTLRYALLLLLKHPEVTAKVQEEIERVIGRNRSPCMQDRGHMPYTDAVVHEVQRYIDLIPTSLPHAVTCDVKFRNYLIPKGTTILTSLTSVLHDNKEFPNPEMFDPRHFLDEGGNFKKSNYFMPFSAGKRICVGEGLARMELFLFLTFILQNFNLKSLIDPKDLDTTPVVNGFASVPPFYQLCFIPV
Test: not given

SMILES | pIC50
COc1cc([C@@H]2c3cc4c(cc3[C@H](O)[C@H]3COC(=O)[C@H]23)OCO4)cc(OC)c1OC [PODOFILOX] | 5.30

Target: Cytochrome P450 2D6 (Homo sapiens, UniProt P10635)
Sequence (P10635 whole entry): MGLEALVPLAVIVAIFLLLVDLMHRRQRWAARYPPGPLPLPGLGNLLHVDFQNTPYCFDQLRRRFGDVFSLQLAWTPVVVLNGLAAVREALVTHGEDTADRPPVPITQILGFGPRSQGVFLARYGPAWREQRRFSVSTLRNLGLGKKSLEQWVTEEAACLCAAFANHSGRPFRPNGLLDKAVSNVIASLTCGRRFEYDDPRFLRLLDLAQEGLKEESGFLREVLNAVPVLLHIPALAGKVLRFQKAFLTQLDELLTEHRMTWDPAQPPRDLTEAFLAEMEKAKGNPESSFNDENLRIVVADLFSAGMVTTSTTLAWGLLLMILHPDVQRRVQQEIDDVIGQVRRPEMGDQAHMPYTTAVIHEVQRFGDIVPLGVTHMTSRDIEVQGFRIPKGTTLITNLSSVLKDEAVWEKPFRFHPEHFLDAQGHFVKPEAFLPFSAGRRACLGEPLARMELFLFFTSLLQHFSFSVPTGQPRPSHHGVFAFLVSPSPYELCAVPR
Test: not given

SMILES | pIC50
CN(Cc1cc(Br)cc(Br)c1N)C1CCCCC1 [BROMHEXINE] | 6.71
c1ccc(Cn2ccnc2)cc1 | 5.70
CC(N)Cc1c[nH]c2ccc(OCc3cccs3)cc12 (configuration not stated) [BW-723C86] | 5.56
CCCCCCNC(=O)n1cc(F)c(=O)[nH]c1=O [CARMOFUR] | 5.30
Cc1cc(C(C)(C)C)c(O)c(C)c1CC1=NCCN1 [OXYMETAZOLINE] | 6.70

Target: T2, Angiotensin-converting enzyme (Oryctolagus cuniculus, UniProt P12822);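 also: enzymatic inhibition of angiotensin-converting enzyme measured with FAPGG as the substrate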
T2 sequence (P12822 whole entry): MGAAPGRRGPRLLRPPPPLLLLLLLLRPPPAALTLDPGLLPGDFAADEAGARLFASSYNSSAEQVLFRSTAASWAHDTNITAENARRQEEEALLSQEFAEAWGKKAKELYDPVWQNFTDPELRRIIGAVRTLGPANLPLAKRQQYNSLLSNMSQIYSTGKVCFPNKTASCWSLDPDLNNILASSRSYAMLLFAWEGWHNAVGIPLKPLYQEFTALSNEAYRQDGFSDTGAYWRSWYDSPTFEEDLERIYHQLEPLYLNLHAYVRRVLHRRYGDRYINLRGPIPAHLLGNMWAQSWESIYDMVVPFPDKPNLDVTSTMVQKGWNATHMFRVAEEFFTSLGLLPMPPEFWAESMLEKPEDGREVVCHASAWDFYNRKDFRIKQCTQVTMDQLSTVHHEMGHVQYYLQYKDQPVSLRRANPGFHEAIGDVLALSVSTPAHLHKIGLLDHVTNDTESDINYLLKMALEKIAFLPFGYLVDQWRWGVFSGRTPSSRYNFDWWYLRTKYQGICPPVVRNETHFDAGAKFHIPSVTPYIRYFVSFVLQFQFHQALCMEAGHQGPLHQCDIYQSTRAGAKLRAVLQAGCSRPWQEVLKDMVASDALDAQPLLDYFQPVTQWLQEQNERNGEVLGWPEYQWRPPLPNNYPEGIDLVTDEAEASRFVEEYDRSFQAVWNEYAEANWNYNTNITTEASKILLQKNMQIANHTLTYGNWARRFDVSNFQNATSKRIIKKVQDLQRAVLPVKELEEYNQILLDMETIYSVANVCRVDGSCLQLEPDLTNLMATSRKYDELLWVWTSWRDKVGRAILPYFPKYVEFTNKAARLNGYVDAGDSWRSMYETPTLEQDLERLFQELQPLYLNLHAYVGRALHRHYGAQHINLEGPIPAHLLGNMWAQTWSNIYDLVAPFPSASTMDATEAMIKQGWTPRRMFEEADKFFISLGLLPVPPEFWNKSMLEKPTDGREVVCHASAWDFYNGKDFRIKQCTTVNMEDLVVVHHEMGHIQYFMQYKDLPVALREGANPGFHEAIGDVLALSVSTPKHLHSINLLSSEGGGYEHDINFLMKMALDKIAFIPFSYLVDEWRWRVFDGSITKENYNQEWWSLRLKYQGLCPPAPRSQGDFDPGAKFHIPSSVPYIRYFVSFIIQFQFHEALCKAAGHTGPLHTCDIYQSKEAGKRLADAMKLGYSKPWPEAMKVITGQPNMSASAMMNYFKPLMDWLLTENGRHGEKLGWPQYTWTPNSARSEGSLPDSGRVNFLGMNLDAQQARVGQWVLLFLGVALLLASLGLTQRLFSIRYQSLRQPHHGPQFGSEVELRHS
Test: biochemical
Assay type: tissue-based, Lung

SMILES | IC50
CN(Cc1cc(Br)cc(Br)c1N)C1CCCCC1 [BROMHEXINE] | Not Active
CN(CCOc1ccc(C[C@H](Nc2ccccc2C(=O)c2ccccc2)C(=O)O)cc1)c1ccccn1 | Not Active
CC(C)(c1ccc(O)cc1)c1ccc(O)cc1 [BISPHENOL A] | Not Active
c1ccc(Cn2ccnc2)cc1 | Not Active
c1ccc2c(c1)Nc1ccccc1S2 [PHENOTHIAZINE] | Not Active
COc1cc([C@@H]2c3cc4c(cc3[C@H](O)[C@H]3COC(=O)[C@H]23)OCO4)cc(OC)c1OC [PODOFILOX] | Not Active
CC(N)Cc1c[nH]c2ccc(OCc3cccs3)cc12 (configuration not stated) [BW-723C86] | Not Active
CCCCCCNC(=O)n1cc(F)c(=O)[nH]c1=O [CARMOFUR] | Not Active
Cc1cc(C(C)(C)C)c(O)c(C)c1CC1=NCCN1 [OXYMETAZOLINE] | Not Active
O=c1[nH]c2ccccc2c2ccccc12 | Not Active
CC(=O)Nc1ccc2c(c1)Cc1ccccc1-2 [2-ACETYLAMINOFLUORENE] | Not Active

Target: T3, Androgen receptor (Rattus norvegicus, UniProt P15207)
T3 sequence (P15207 whole entry): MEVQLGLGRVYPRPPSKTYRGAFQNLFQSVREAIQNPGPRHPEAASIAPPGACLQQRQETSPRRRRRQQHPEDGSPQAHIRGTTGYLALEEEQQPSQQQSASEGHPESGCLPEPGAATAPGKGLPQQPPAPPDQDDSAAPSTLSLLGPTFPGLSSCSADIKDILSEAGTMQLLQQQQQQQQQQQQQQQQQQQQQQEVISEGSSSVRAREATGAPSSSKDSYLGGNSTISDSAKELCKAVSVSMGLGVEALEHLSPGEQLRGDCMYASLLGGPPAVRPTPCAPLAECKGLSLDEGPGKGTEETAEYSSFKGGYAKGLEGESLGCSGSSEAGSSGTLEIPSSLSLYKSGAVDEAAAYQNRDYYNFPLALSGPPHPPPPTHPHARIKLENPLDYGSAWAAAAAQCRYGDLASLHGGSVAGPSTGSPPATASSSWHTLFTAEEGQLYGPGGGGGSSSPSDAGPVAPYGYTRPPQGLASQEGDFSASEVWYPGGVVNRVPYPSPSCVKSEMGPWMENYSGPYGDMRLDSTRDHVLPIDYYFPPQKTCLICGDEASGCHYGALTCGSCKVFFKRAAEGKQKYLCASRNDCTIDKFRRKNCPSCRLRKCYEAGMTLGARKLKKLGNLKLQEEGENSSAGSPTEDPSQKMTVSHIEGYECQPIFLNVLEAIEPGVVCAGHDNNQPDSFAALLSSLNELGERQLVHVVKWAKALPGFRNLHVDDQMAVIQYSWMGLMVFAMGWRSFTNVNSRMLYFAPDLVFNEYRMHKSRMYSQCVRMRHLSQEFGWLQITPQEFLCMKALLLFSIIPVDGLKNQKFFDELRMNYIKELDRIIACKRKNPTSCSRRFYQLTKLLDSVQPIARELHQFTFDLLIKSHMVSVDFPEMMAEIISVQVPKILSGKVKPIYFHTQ
Test: not given

SMILES | IC50
CN(CCOc1ccc(C[C@H](Nc2ccccc2C(=O)c2ccccc2)C(=O)O)cc1)c1ccccn1 | Not Active
c1ccc(Cn2ccnc2)cc1 | Not Active
COc1cc([C@@H]2c3cc4c(cc3[C@H](O)[C@H]3COC(=O)[C@H]23)OCO4)cc(OC)c1OC [PODOFILOX] | Not Active
CC(N)Cc1c[nH]c2ccc(OCc3cccs3)cc12 (configuration not stated) [BW-723C86] | Not Active
Cc1cc(C(C)(C)C)c(O)c(C)c1CC1=NCCN1 [OXYMETAZOLINE] | Not Active
O=c1[nH]c2ccccc2c2ccccc12 | Not Active

Target: T3, Androgen receptor
Test: not given
Remark: another data set of the same source

SMILES | pIC50 | pKi
CC(C)(c1ccc(O)cc1)c1ccc(O)cc1 [BISPHENOL A] | 4.47 | 4.65
